Residue numbers refer to the chain shown, from its start.
Legend:
ZmEPSPS [1] = molecular target: T1, ZmEPSPS (Zea mays, UniProt A0A1D6NVZ6, P168A/T164I); assay: EPSPS enzyme activity assay, glyphosate titration; assay type: biochemical
T1 sequence (A0A1D6NVZ6 63-506 T164I/P168A): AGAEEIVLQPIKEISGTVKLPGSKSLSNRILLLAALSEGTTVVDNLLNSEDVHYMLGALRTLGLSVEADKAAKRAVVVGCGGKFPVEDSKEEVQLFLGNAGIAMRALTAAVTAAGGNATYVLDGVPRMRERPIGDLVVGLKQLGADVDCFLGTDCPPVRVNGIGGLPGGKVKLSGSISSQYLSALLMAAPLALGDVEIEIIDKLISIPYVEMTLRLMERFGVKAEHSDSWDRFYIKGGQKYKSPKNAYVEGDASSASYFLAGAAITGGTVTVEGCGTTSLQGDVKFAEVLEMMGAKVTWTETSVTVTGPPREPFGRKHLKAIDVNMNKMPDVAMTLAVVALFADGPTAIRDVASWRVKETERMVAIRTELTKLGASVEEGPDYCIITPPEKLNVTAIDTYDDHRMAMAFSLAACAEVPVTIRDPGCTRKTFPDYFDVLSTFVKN

ZmEPSPS [2] = molecular target: T2, ZmEPSPS (Zea mays, UniProt A0A1D6NVZ6); assay: EPSPS enzyme activity assay, glyphosate titration; assay type: biochemical
T2 sequence (A0A1D6NVZ6 63-506): T1 sequence (A0A1D6NVZ6 63-506 T164I/P168A) with I102T, A106P

SMILES: O=C(O)CNCP(=O)(O)O [glyphosate]
- IC50 (ZmEPSPS [1]): 19.5 ± 2.8 mM
- IC50 (ZmEPSPS [2]): 0.0139 ± 0.0035 mM

Reference: PMC5901408 (Pest Management Science, 2017)
